# Assay results reported in patent publication US11345659B2, “Pipecolic esters for inhibition of the proteasome” (THE BOARD OF REGENTS OF THE UNIVERSY OF TEXAS SYSTEM, priority 2018, dated 2022).
# How the values were obtained:
# [1] = target: T1, latent core 20 S proteasome (Homo sapiens, UniProt P25787+P25789); assay: ChT-L peptidase activity of latent 20 S core; type: biochemical; settings: no tRpt5 activation
# T1 construct: purified from erythrocytes; purchased Enzo Life Sciences, Inc. (Farmingdale, N.Y.); host or cells: human erythrocytes
# Protocol: Human housekeeping 20 S and 26 S and complexes purified from erythrocytes were purchased from Enzo Life Sciences, Inc. (Farmingdale, N.Y.). The 1 mg/ml stock 20 S proteasome was diluted to 0.2 mg/ml working solution in 50 mM Tris/HCl, pH 8 containing 20% glycerol (dilution buffer). For the 26 S proteasome stock, the dilution buffer was supplemented with 2 mM ATP, 1 mM MgCl2, and 1 mM DTT (dithiothreitol). The ChT-L peptidase activity was measured as arbitrary intensity units of fluorescence emitted by 7-amino-4-methylcoumarin (AMC) released from the canonical model peptide substrate succinyl-LeuLeuValTyr-methylcoumarin (SucLLVY-MCA; Bachem Bioscience Inc., Philadelphia, Pa.), used at concentration of 100 μM. Free AMC (Sigma-Aldrich, St. Louis, Mo.) was used as the standard. The Rpt5 C-terminal peptide was synthesized (standard solid-phase peptide chemistry) and purified to at least 98% purity by GenScript (Piscataway, N.J.). […]
# The reaction was carried out in 96-well plates, in 100 μL of reaction mixture, for 1 hour at 37° C. […] The reaction rates were calculated from a linear segment of kinetic curves constructed from measurements in 1-minutes intervals (Fluoroskan Ascent plate reader; Thermo Fisher Scientific Inc., Waltham, Mass.). Reaction rates were calculated using a linear fit executed by Slope Analyzer and Enzyme Kinetics applications launched within Origin Pro 2017 (OriginLab). […]
# [2] = target: T1, latent core 20 S proteasome; assay: PGPH peptidase activity of latent 20 S core; type: biochemical
# [3] = target: T1, latent core 20 S proteasome; assay: T-L peptidase activity of latent 20 S core; type: biochemical
# [4] = test system: human cultured androgen-resistant prostate cancer PC3 cells; assay: Scratch test with PC3 cells; type: cell-based; settings: 1 μM, 24 hrs, 0.5 mm gap
# Protocol: The “scratch test” was performed with human cultured androgen-resistant prostate cancer PC3 cells. The surface of growing confluent cells was scratched to produce a 0.5 mm wide gap. The scratch was photographed at time 0 hrs. and the cells were cultured with vehicle (DMSO; 1:1000) or with 1 μM of compound 3. After 24 hrs the scratch in control culture was almost entirely closed.
# immunoproteasomes = immunoproteasomes (Homo sapiens, UniProt P25787+P25789); assay: Activity of housekeeping and immunoproteasomes activated with Rpt5-derived peptide; type: biochemical
# From the text: Immuno and housekeeping forms are serving distinct physiological functions. The clinically used competitive inhibitors do target them with a similar efficacy; however such outcome is not obvious with allosteric inhibitors such as compound 3. Referring to FIG. 11, the relative activities of the proteasome forms are shown, activated with the Rpt5-derived peptide and treated with compound 3.
# [5] = target: 20 S proteasome and 19 S regulatory particle (Homo sapiens, UniProt P25787+P25789); assay: In vitro reconstruction of 26 S: activation of 20 S core by 19 S regulatory particle; type: biochemical; settings: pretreatment 10 minutes RT with 1 μM, 2:1 19 S:20 S, with ATP
# Protocol: The 26 S proteasome can be reconstructed in vitro from the purified core (20 S) and regulatory particle (19 S) protein complexes. Activation of the core is considered a measure of effectiveness of the reconstruction. […] The reconstruction was carried out in the presence of ATP (1 mM ATP, 0.5 mM MgCl2, 0.5 mM dithiothreitol), as required for the optimal conditions of the 20 S-19 S binding. Averages and SD from three independent experiments are presented.
smiles,measurement,setting,value
"COc1cc(CCCOC(=O)[C@@H]2CCCCN2C(=O)OCc2ccccc2)cc(OC)c1OC [Compound 3, 1-benzyl 2-(3-(3,4,5-trimethoxyphenyl)propyl) (S)-piperidine-1,2-dicarboxylate]",IC50,[1],2.8 µM
same,IC50,[2],> 50 µM
same,remaining activity at 10 µM,"[2]; 10 μM compound, n=5, read-out: PGPH activity, % of control",99%
same,remaining activity at 50 µM,"[2]; 50 μM compound, n=3, read-out: PGPH activity, % of control",71%
same,IC50,[3],> 50 µM
same,remaining activity at 1 µM,"[3]; 1 μM compound, n=3, read-out: T-L activity, % of the control",77%
same,remaining activity at 50 µM,"[3]; 50 μM compound, n=4, read-out: T-L activity, % of the control",64%
same,closure of scratch (migration and proliferation),[4],the scratch was still visible
same,inhibition of housekeeping versus immunoproteasomes,immunoproteasomes,inhibits both housekeeping and immunoproteasomes with similar efficacy
same,activation of 20 S core by 19 S,[5],"strongly attenuated the activation, by about two-thirds"
